Reference: BindingDB's records for doi:10.1021/acs.biochem.6b00786 (University of California Irvine, 2016)

Legend:
[1] = target: Nitric oxide synthase oxygenase [E25A,E26A,E316A] (Bacillus subtilis, UniProt O34453, E25A/E26A/E316A); assay: bBiDomain assay
Experimental: (§1) Reactions were carried out using the buffered solution reported for the three-component reaction. The bBiDomain reactions included 100 nm bBiDomain and either YumC or FLDR at 1 μm; except for reactions in which YumC concentrations were varied. For inhibition assays, inhibitors were added at 30 μm. Similar to the three-component reaction, bBiDomain reactions were initiated with NADPH at a final concentration of 400 μm, quenched by thermal denaturation, and analyzed by Griess reaction.

[2] = target: Nitric oxide synthase oxygenase [E25A,E26A,I218V,E316A] (Bacillus subtilis, UniProt O34453, E25A/E26A/E316A/I218V); assay: bBiDomain assay
Experimental: as §1

## Cc1cc(N)nc2ccccc12
[1]
  IC50: 36.6 µM
[2]
  IC50: 53.3 µM
